The target of the assay is HDM2 protein (Homo sapiens, UniProt Q00987). The assay can be described thus: fluorescence polarization screening assay (FP IC50). The format is binding. The note with it: class symbols. The method, then:
The compounds were evaluated to determine activity at the HDM2 protein by known methods such as the fluorescence polarization screening assay that measures the inhibitory concentration that achieves 50% of maximal activity (FP IC50) and the dissociation constant for inhibitor binding (FP Ki). [Zhang et al., J. Analytical Biochemistry 331: 138-146 (2004)].
In general terms: Fluorescence polarisation rises when a labelled molecule tumbles more slowly, as on binding a larger partner.
Chain of HDM2 protein (Q00987 whole entry): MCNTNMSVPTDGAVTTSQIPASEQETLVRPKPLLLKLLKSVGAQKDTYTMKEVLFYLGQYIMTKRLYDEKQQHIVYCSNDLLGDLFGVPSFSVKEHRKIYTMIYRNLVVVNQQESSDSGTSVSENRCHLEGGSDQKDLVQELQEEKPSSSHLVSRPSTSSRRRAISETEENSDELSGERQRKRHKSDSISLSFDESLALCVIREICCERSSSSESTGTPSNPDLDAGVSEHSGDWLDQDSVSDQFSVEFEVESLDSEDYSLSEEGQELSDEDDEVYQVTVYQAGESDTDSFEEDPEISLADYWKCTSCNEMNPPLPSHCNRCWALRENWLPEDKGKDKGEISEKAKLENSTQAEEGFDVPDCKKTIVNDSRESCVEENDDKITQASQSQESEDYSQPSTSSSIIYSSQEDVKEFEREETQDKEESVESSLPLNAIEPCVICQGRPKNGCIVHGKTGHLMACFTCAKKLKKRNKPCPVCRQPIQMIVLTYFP
As for `CCC[C@H]1N(C(=O)c2ncccc2C(F)(F)F)CCC[C@@]1(Oc1csc(C(F)(F)F)c1)C(=O)N1CCc2cc(Cl)ccc2C1C1CCC(C(=O)O)C1` (stereo partly drawn) [Compound A96, 3-(6-chloro-2-{[(2R,3S)-2-propyl-1-{[3-(trifluoromethyl)pyridin-2-yl]carbonyl}-3-{[5-(trifluoromethyl)thiophen-3-yl]oxy}piperidin-3-yl]carbonyl}-1,2,3,4-tetrahydroisoquinolin-1-yl)cyclopentanecarboxylic acid], the IC50 (usually the midpoint of a concentration-inhibition curve) lay in the range of 1 to 100 nM. The compound `NC(=O)C1c2ccc(Cl)cc2CCN1C(=O)[C@]1(Oc2csc(C(F)(F)F)c2)CCCN(C(=O)c2ncccc2C(F)(F)F)[C@@H]1CC(=O)O` (stereo partly drawn) [Compound A97, [(2R,3S)-3-[(1-carbamoyl-6-chloro-3,4-dihydroisoquinolin-2(1H)-yl)carbonyl]-1-{[3-(trifluoromethyl)pyridin-2-yl]carbonyl}-3-{[5-(trifluoromethyl)thiophen-3-yl]oxy}piperidin-2-yl]acetic acid] came in with an IC50 of 1 to 100 nM. Take `CCC[C@H]1N(C(=O)c2ncccc2C(F)(F)F)CCC[C@@]1(Oc1csc(C(F)(F)F)c1)C(=O)N1CCc2cc(Cl)ccc2[C@H]1CCC(=O)N1CCC(C(=O)O)CC1` [Compound A98, 1-{3-[(1R)-6-chloro-2-{[(2R,3S)-2-propyl-1-{[3-(trifluoromethyl)pyridin-2-yl]carbonyl}-3-{[5-(trifluoromethyl)thiophen-3-yl]oxy}piperidin-3-yl]carbonyl}-1,2,3,4-tetrahydroisoquinolin-1-yl]propanoyl}piperidine-4-carboxylic acid]: the IC50 fell in the range of 1 to 100 nM.

Consider `CCC[C@H]1N(C(=O)c2ncccc2C(F)(F)F)CCC[C@@]1(Oc1csc(C(F)(F)F)c1)C(=O)N1CCc2cc(Cl)ccc2[C@@H]1CCC(=O)N1CCC(C(=O)O)CC1` [Compound A99, 1-{3-[(1S)-6-chloro-2-{[(2R,3S)-2-propyl-1-{[3-(trifluoromethyl)pyridin-2-yl]carbonyl}-3-{[5-(trifluoromethyl)thiophen-3-yl]oxy}piperidin-3-yl]carbonyl}-1,2,3,4-tetrahydroisoquinolin-1-yl]propanoyl}piperidine-4-carboxylic acid], for which the IC50 was 1 to 100 nM. As for `CCC[C@H]1N(C(=O)c2ncccc2C(F)(F)F)CCC[C@@]1(Oc1csc(C(F)(F)F)c1)C(=O)N1CCc2cc(Cl)ccc2C1C(=O)O` (stereo partly drawn) [Compound A100, 6-chloro-2-{[(2R,3S)-2-propyl-1-{[3-(trifluoromethyl)pyridin-2-yl]carbonyl}-3-{[5-(trifluoromethyl)thiophen-3-yl]oxy}piperidin-3-yl]carbonyl}-1,2,3,4-tetrahydroisoquinoline-1-carboxylic acid], the figure is 1 to 100 nM; as for `CCC[C@H]1N(C(=O)c2ncccc2C(F)(F)F)CCC[C@@]1(Oc1csc(C(F)(F)F)c1)C(=O)N1CCc2cc(F)ccc2C1C(=O)O` (stereo partly drawn) [Compound A101, 6-fluoro-2-{[(2R,3S)-2-propyl-1-{[3-(trifluoromethyl)pyridin-2-yl]carbonyl}-3-{[5-(trifluoromethyl)thiophen-3-yl]oxy}piperidin-3-yl]carbonyl}-1,2,3,4-tetrahydroisoquinoline-1-carboxylic acid], 1 to 100 nM; as for `CCC[C@H]1N(C(=O)c2ncccc2C(F)(F)F)CCC[C@@]1(Oc1csc(C(F)(F)F)c1)C(=O)N1CCc2cc(Cl)ccc2C1C(=O)O` (stereo partly drawn) [Compound A102, 6-chloro-2-{[(2R,3S)-2-propyl-1-{[3-(trifluoromethyl)pyridin-2-yl]carbonyl}-3-{[5-(trifluoromethyl)thiophen-3-yl]oxy}piperidin-3-yl]carbonyl}-1,2,3,4-tetrahydroisoquinoline-1-carboxylic acid], 1 to 100 nM. For the compound `CCC[C@H]1N(C(=O)c2ncccc2C(F)(F)F)CCC[C@@]1(Oc1csc(C(F)(F)F)c1)C(=O)N1CCc2cc(Cl)ccc2C1CO` (stereo partly drawn) [Compound A103, (6-chloro-2-{[(2R,3S)-2-propyl-1-{[3-(trifluoromethyl)pyridin-2-yl]carbonyl}-3-{[5-(trifluoromethyl)thiophen-3-yl]oxy}piperidin-3-yl]carbonyl}-1,2,3,4-tetrahydroisoquinolin-1-yl)methanol], the IC50 lay within 101 to 20000 nM. Turning to `CCC[C@H]1N(C(=O)c2ncccc2C(F)(F)F)CCC[C@@]1(Oc1csc(C(F)(F)F)c1)C(=O)N1CCc2cc(F)ccc2C1C(=O)O` (stereo partly drawn) [Compound A104, 6-fluoro-2-{[(2R,3S)-2-propyl-1-{[3-(trifluoromethyl)pyridin-2-yl]carbonyl}-3-{[5-(trifluoromethyl)thiophen-3-yl]oxy}piperidin-3-yl]carbonyl}-1,2,3,4-tetrahydroisoquinoline-1-carboxylic acid], the IC50 lay within 1 to 100 nM. `CCC[C@H]1N(C(=O)c2ncccc2C(F)(F)F)CCC[C@@]1(Oc1csc(C(F)(F)F)c1)C(=O)N1CCc2cc(Cl)ccc2C1CO` (stereo partly drawn) [Compound A105, (6-chloro-2-{[(2R,3S)-2-propyl-1-{[3-(trifluoromethyl)pyridin-2-yl]carbonyl}-3-{[5-(trifluoromethyl)thiophen-3-yl]oxy}piperidin-3-yl]carbonyl}-1,2,3,4-tetrahydroisoquinolin-1-yl)methanol] had an IC50 of 101 to 20000 nM. The compound `CCC[C@H]1N(C(=O)c2ncccc2C(F)(F)F)CCC[C@@]1(Oc1csc(C(F)(F)F)c1)C(=O)N1CCc2cc(Cl)ccc2C1COC` (stereo partly drawn) [Compound A106, 6-chloro-1-(methoxymethyl)-2-{[(2R,3S)-2-propyl-1-{[3-(trifluoromethyl)pyridin-2-yl]carbonyl}-3-{[5-(trifluoromethyl)thiophen-3-yl]oxy}piperidin-3-yl]carbonyl}-1,2,3,4-tetrahydroisoquinoline] came in with an IC50 of 1 to 100 nM. The figure for `CCC[C@H]1N(C(=O)c2ncccc2C(F)(F)F)CCC[C@@]1(Oc1csc(C(F)(F)F)c1)C(=O)N1CCc2cc(Cl)ccc2C1COC` (stereo partly drawn) [Compound A107, 6-chloro-1-(methoxymethyl)-2-{[(2R,3S)-2-propyl-1-{[3-(trifluoromethyl)pyridin-2-yl]carbonyl}-3-{[5-(trifluoromethyl)thiophen-3-yl]oxy}piperidin-3-yl]carbonyl}-1,2,3,4-tetrahydroisoquinoline] is 101 to 20000 nM; for `CCC[C@H]1N(C(=O)c2ncccc2C(F)(F)F)CCC[C@@]1(Oc1csc(C(F)(F)F)c1)C(=O)N1CCc2cc(Cl)ccc2C1CC(C)(C)C(=O)O` (stereo partly drawn) [Compound A108, 3-(6-chloro-2-{[(2R,3S)-2-propyl-1-{[3-(trifluoromethyl)pyridin-2-yl]carbonyl}-3-{[5-(trifluoromethyl)thiophen-3-yl]oxy}piperidin-3-yl]carbonyl}-1,2,3,4-tetrahydroisoquinolin-1-yl)-2,2-dimethylpropanoic acid] it is 1 to 100 nM. Regarding `CCC[C@H]1N(C(=O)c2ncccc2C(F)(F)F)CCC[C@@]1(Oc1csc(C(F)(F)F)c1)C(=O)N1CCc2cc(Cl)ccc2C1(CCO)C(N)=O` (stereo partly drawn) [Compound A109, 6-chloro-1-(2-hydroxyethyl)-2-{[(2R,3S)-2-propyl-1-{[3-(trifluoromethyl)pyridin-2-yl]carbonyl}-3-{[5-(trifluoromethyl)thiophen-3-yl]oxy}piperidin-3-yl]carbonyl}-1,2,3,4-tetrahydroisoquinoline-1-carboxamide], the IC50 is 1 to 100 nM. The figure for `CCCC1N(C(=O)c2ncccc2C(F)(F)F)CCCC1(Oc1ccc(OC(F)(F)F)cc1)C(=O)N1CCc2cc(F)ccc2C1` (centres unmarked) [Compound A110, 6-fluoro-2-[(2-propyl-3-[4-(trifluoromethoxy)phenoxy]-1-{[3-(trifluoromethyl)pyridin-2-yl]carbonyl}piperidin-3-yl)carbonyl]-1,2,3,4-tetrahydroisoquinoline] is 101 to 20000 nM. The figure for `CCC[C@H]1N(C(=O)c2ncccc2C(F)(F)F)CCC[C@@]1(Oc1ccc(OC(F)(F)F)cc1)C(=O)N1CCc2cc(Cl)ccc2[C@@H]1CCC(=O)O` [Compound A111] is 1 to 100 nM; for `O=C(c1ncccc1C(F)(F)F)N1CCC[C@@](Oc2csc(C(F)(F)F)c2)(C(=O)N2CCc3cc(Cl)ccc3C2)[C@H]1CCNC1CCOCC1` [Compound A112, N-{2-[(2R,3S)-3-[(6-chloro-3,4-dihydroisoquinolin-2(1H)-yl)carbonyl]-1-{[3-(trifluoromethyl)pyridin-2-yl]carbonyl}-3-{[5-(trifluoromethyl)thiophen-3-yl]oxy}piperidin-2-yl]ethyl}tetrahydro-2H-pyran-4-amine] it is 1 to 100 nM; for `C=CC[C@H]1N(C(=O)c2ncccc2C(F)(F)F)CCC[C@@]1(Oc1csc(C(F)(F)F)c1)C(=O)N1CCc2cc(Cl)ccc2C1C(=O)O` (stereo partly drawn) [Compound A113, 6-chloro-2-{[(2R,3S)-2-prop-2-en-1-yl-1-{[3-(trifluoromethyl)pyridin-2-yl]carbonyl}-3-{[5-(trifluoromethyl)thiophen-3-yl]oxy}piperidin-3-yl]carbonyl}-1,2,3,4-tetrahydroisoquinoline-1-carboxylic acid] it is 1 to 100 nM. `CCN1CCN(CC[C@H]2N(C(=O)c3ncccc3C(F)(F)F)CCC[C@@]2(Oc2csc(C(F)(F)F)c2)C(=O)N2CCc3cc(Cl)ccc3C2)CC1` [Compound A114, 6-chloro-2-{[(2R,3S)-2-[2-(4-ethylpiperazin-1-yl)ethyl]-1-{[3-(trifluoromethyl)pyridin-2-yl]carbonyl}-3-{[5-(trifluoromethyl)thiophen-3-yl]oxy}piperidin-3-yl]carbonyl}-1,2,3,4-tetrahydroisoquinoline]: the IC50 is 1 to 100 nM. Regarding `CN1CCN(CC[C@H]2N(C(=O)c3ncccc3C(F)(F)F)CCC[C@@]2(Oc2csc(C(F)(F)F)c2)C(=O)N2CCc3cc(Cl)ccc3C2)CC1` [Compound A115, 6-chloro-2-{[(2R,3S)-2-[2-(4-methylpiperazin-1-yl)ethyl]-1-{[3-(trifluoromethyl)pyridin-2-yl]carbonyl}-3-{[5-(trifluoromethyl)thiophen-3-yl]oxy}piperidin-3-yl]carbonyl}-1,2,3,4-tetrahydroisoquinoline], the IC50 was in the range of 1 to 100 nM.

The values above are taken from patent US9062071B2, “Substituted piperidines as HDM2 inhibitors” (Merck Sharp & Dohme Corp, priority 2011, dated 2015).
